Reference: paper PMC10449633 (Nature Chemical Biology, 2023)
Numbered stars: 1 amine (or outer) side, 2 acyl side, 3 side chain; on linkers, the order of the positions; unused ones are H or OH. Square brackets hold non-standard residues; d marks the D form. Peptide text beside a SMILES is read from it. ξ: configuration not given here. X1 = CN(C(Cc1cn(Cc2ccc(Br)cc2)c2ccccc12)C(=O)[*:2])[*:1]; ξAla(CF3) = NC(CC(F)(F)F)C(=O)O; X2 = N#CCCC(O[*:1])C(=O)[*:2]; NMeL = CN[CH](CC(C)C)C(=O)O; NMeA = CN[CH](C)C(=O)O

Legend:
Sec61 [1] = target: T1, Sec61 (Homo sapiens, UniProt P61619); test: cell-based; settings: 24 h, range in brackets
T1 construct: endogenous in cells
Target sequence in this assay (P60059 whole entry): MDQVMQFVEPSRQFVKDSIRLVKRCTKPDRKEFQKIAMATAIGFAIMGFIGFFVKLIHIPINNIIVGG
Target sequence in this assay (P61619 whole entry): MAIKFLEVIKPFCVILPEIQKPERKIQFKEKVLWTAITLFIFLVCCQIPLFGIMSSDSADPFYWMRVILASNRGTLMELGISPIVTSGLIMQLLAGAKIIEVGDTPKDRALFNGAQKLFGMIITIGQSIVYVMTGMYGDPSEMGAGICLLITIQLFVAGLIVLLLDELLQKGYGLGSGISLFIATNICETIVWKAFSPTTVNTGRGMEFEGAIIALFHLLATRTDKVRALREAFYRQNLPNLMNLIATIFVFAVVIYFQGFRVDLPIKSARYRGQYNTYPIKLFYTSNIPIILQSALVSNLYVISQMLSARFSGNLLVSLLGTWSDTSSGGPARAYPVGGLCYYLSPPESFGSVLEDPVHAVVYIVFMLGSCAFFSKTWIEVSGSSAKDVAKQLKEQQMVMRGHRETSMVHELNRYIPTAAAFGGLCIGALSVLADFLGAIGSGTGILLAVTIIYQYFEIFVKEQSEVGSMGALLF
Target sequence in this assay (P60468 whole entry, further chain): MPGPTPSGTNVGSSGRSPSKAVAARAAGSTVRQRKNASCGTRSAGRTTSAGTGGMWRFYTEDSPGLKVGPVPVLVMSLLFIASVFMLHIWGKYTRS

Sec61 [2] = target: T1, Sec61; test: signal peptide-GLuc (SP-GLuc) reporter panel, 89 constructs; type: cell-based
Text: The heat map depicts IC50 values calculated from each SP-GLuc dose–response curve. d, Arthritis was induced in BALB/c mice with antibodies specific for type II collagen (mAb) on day 0 and endotoxin on day 3. On day 4, when the disease was present in all animals, mice were randomized and treated for 2 weeks with thrice weekly (QODx3) or weekly (QW) intravenous administration of vehicle or KZR-8445 or intraperitoneal administration of dexamethasone. Clinical scores (0–4 per paw; n = 10 per group) and body weights were followed until day 14. Data are presented as mean values ± s.d. mAb, monoclonal antibody. Source data
To investigate the effects of KZR-8445 on secretory and membrane protein biogenesis and to establish Sec61α as the relevant target, we quantified the secretion of a doxycycline-inducible Gaussia luciferase (GLuc) reporter fused to the C-terminus of two full-length pro-inflammatory cytokines, interleukin-2 (IL-2) (which contains a cleavable signal peptide) and tumor necrosis factor-alpha (TNFα) (which contains an N-terminal transmembrane anchor). […] KZR-8445 is structurally related to CT8, which discriminates among Sec61 clients based largely on their N-terminal signal peptide. […] We also directly compared KZR-8445 to mycolactone A/B, a structurally distinct and relatively client-nonselective Sec61 inhibitor[8],[25], for their ability to discriminate between vascular cell adhesion molecule (VCAM) and preprolactin (pPL) signal peptides.
Target sequence in this assay (P61619 whole entry): as the sequence (P61619 whole entry) above
Target sequence in this assay (P60059 whole entry, further chain): as the sequence (P60059 whole entry) above
Target sequence in this assay (P60468 whole entry, further chain): as the sequence (P60468 whole entry, further chain) above

## CC(C)CC1NC(=O)C(Cc2cn(Cc3ccc(Br)cc3)c3ccccc23)N(C)C(=O)C(CC(F)(F)F)NC(=O)C(CC(C)C)N(C)C(=O)C(CC(F)(F)F)NC(=O)C(CCC#N)OC(=O)C(C)N(C)C1=O (stereo not drawn) [KZR-8445] (cyclo([X1]L[NMeA][X2][ξAla(CF3)][NMeL][ξAla(CF3)]); configuration not given here)
Sec61 [1]; HER3 signal peptide-GLuc, read-out: IC50 (nM) HER3
  IC50: 72 nM
Sec61 [1]; PD1 signal peptide-GLuc, read-out: IC50 (nM) PD1
  IC50: 32 nM
Sec61 [1]; full-length IL-2-GLuc, read-out: IC50 (nM) IL-2
  IC50: 84 nM
Sec61 [1]; full-length TNFα-GLuc, read-out: IC50 (nM) TNFα
  IC50: 40 nM
Sec61 [1]; prolactin signal peptide-GLuc, read-out: IC50 (nM) Prolactin
  IC50: 1070 nM
Sec61 [2]; 89 signal peptide-GLuc reporters, 24 h, read-out: highest IC50 in the panel
  IC50: > 25000 nM
Sec61 [2]; 89 signal peptide-GLuc reporters, 24 h, read-out: lowest IC50 in the panel
  IC50: 5 nM
Sec61 [2]; 89 signal peptide-GLuc reporters, 24 h, read-out: median IC50 of the panel
  IC50: 366 nM
Sec61 [2]; ADPGK SP-GLuc, read-out: log10(IC50 8445) (converted)
  IC50: 540 nM
Sec61 [2]; ANGPTL3 SP-GLuc, read-out: log10(IC50 8445) (converted)
  IC50: 49.4 nM
Sec61 [2]; APOC1 SP-GLuc, read-out: log10(IC50 8445) (converted)
  IC50: 135 nM
Sec61 [2]; APP SP-GLuc, read-out: log10(IC50 8445) (converted)
  IC50: 449 nM
Sec61 [2]; AXL SP-GLuc, read-out: log10(IC50 8445) (converted)
  IC50: 13.8 nM
Sec61 [2]; BCAN SP-GLuc, read-out: log10(IC50 8445) (converted)
  IC50: 142 nM
Sec61 [2]; C1S SP-GLuc, read-out: log10(IC50 8445) (converted)
  IC50: 383 nM
Sec61 [2]; CALCA SP-GLuc, read-out: log10(IC50 8445) (converted)
  IC50: 721 nM
Sec61 [2]; CALCB SP-GLuc, read-out: log10(IC50 8445) (converted)
  IC50: 972 nM
Sec61 [2]; CD40 SP-GLuc, read-out: log10(IC50 8445) (converted)
  IC50: 11300 nM
Sec61 [2]; CD47 SP-GLuc, read-out: log10(IC50 8445) (converted)
  IC50: 373 nM
Sec61 [2]; CD96 SP-GLuc, read-out: log10(IC50 8445) (converted)
  IC50: 29.2 nM
Sec61 [2]; CD274 SP-GLuc, read-out: log10(IC50 8445) (converted)
  IC50: 93.3 nM
Sec61 [2]; CDH1 SP-GLuc, read-out: log10(IC50 8445) (converted)
  IC50: 811 nM
Sec61 [2]; CDH2 SP-GLuc, read-out: log10(IC50 8445) (converted)
  IC50: 15.5 nM
Sec61 [2]; CDH5 SP-GLuc, read-out: log10(IC50 8445) (converted)
  IC50: 76 nM
Sec61 [2]; CNPY2 SP-GLuc, read-out: log10(IC50 8445) (converted)
  IC50: 394 nM
Sec61 [2]; CPD SP-GLuc, read-out: log10(IC50 8445) (converted)
  IC50: 694 nM
Sec61 [2]; CR1L SP-GLuc, read-out: log10(IC50 8445) (converted)
  IC50: 61.3 nM
Sec61 [2]; CSF2RB SP-GLuc, read-out: log10(IC50 8445) (converted)
  IC50: 652 nM
Sec61 [2]; CTLA4 SP-GLuc, read-out: log10(IC50 8445) (converted)
  IC50: 343 nM
Sec61 [2]; DDRGK1 SP-GLuc, read-out: log10(IC50 8445) (converted)
  IC50: 1850 nM
Sec61 [2]; DMKN SP-GLuc, read-out: log10(IC50 8445) (converted)
  IC50: 2630 nM
Sec61 [2]; DNAJB11 SP-GLuc, read-out: log10(IC50 8445) (converted)
  IC50: 4360 nM
Sec61 [2]; ERBB2 SP-GLuc, read-out: log10(IC50 8445) (converted)
  IC50: 536 nM
Sec61 [2]; F3 SP-GLuc, read-out: log10(IC50 8445) (converted)
  IC50: 162 nM
Sec61 [2]; FGF23 SP-GLuc, read-out: log10(IC50 8445) (converted)
  IC50: 28.2 nM
Sec61 [2]; FLT3 SP-GLuc, read-out: log10(IC50 8445) (converted)
  IC50: 360 nM
Sec61 [2]; FNDC10 SP-GLuc, read-out: log10(IC50 8445) (converted)
  IC50: 726 nM
Sec61 [2]; FURIN SP-GLuc, read-out: log10(IC50 8445) (converted)
  IC50: 4740 nM
Sec61 [2]; GAS6 SP-GLuc, read-out: log10(IC50 8445) (converted)
  IC50: 118 nM
Sec61 [2]; HJV SP-GLuc, read-out: log10(IC50 8445) (converted)
  IC50: 427 nM
Sec61 [2]; HLA-G SP-GLuc, read-out: log10(IC50 8445) (converted)
  IC50: 39.2 nM
Sec61 [2]; HSPA13 SP-GLuc, read-out: log10(IC50 8445) (converted)
  IC50: 1110 nM
Sec61 [2]; IGF1R SP-GLuc, read-out: log10(IC50 8445) (converted)
  IC50: 814 nM
Sec61 [2]; IL1RAP SP-GLuc, read-out: log10(IC50 8445) (converted)
  IC50: 101 nM
Sec61 [2]; IL4R SP-GLuc, read-out: log10(IC50 8445) (converted)
  IC50: 32 nM
Sec61 [2]; IL4 SP-GLuc, read-out: log10(IC50 8445) (converted)
  IC50: 359 nM
Sec61 [2]; IL5RA SP-GLuc, read-out: log10(IC50 8445) (converted)
  IC50: 1310 nM
Sec61 [2]; IL5 SP-GLuc, read-out: log10(IC50 8445) (converted)
  IC50: 1300 nM
Sec61 [2]; IL6R SP-GLuc, read-out: log10(IC50 8445) (converted)
  IC50: 92.3 nM
Sec61 [2]; IL6 SP-GLuc, read-out: log10(IC50 8445) (converted)
  IC50: 155 nM
Sec61 [2]; IL6ST SP-GLuc, read-out: log10(IC50 8445) (converted)
  IC50: 56.5 nM
Sec61 [2]; IL7 SP-GLuc, read-out: log10(IC50 8445) (converted)
  IC50: 5.23 nM
Sec61 [2]; IL10 SP-GLuc, read-out: log10(IC50 8445) (converted)
  IC50: 434 nM
Sec61 [2]; IL11 SP-GLuc, read-out: log10(IC50 8445) (converted)
  IC50: 183 nM
Sec61 [2]; IL12B SP-GLuc, read-out: log10(IC50 8445) (converted)
  IC50: 109 nM
Sec61 [2]; IL12RB1 SP-GLuc, read-out: log10(IC50 8445) (converted)
  IC50: 64.4 nM
Sec61 [2]; IL13 SP-GLuc, read-out: log10(IC50 8445) (converted)
  IC50: 59.1 nM
Sec61 [2]; IL15RA SP-GLuc, read-out: log10(IC50 8445) (converted)
  IC50: 294 nM
Sec61 [2]; IL15 SP-GLuc, read-out: log10(IC50 8445) (converted)
  IC50: 116 nM
Sec61 [2]; IL17A SP-GLuc, read-out: log10(IC50 8445) (converted)
  IC50: 318 nM
